# Test results reported in patent US11173151B2, “Substituted triazole derivatives and uses thereof” (BAYER AKTIENGESELLSCHAFT, priority 2017, dated 2021).
# What was measured:
# human V1a receptor = biological target: T1, human V1a receptor (Homo sapiens, UniProt P37288); experiment: Cellular in vitro assay for determining vasopressin receptor activity, V1a receptor cell line (CHO, aequorin luminescence); assay type: cell-based; conditions: for IC50: CHO cell line transfected with human V1a receptor, [Arg]-vasopressin at EC50 concentration, read-out: IC50 hV1a; for ratio IC50 hV2/hV1a: selectivity ratio IC50 hV2 / IC50 hV1a
# T1 construct: expressed in transfected cells; host or cells: CHO K1 (ATCC), also stably transfected with a modified aequorin
# T1 sequence (P37288 whole entry): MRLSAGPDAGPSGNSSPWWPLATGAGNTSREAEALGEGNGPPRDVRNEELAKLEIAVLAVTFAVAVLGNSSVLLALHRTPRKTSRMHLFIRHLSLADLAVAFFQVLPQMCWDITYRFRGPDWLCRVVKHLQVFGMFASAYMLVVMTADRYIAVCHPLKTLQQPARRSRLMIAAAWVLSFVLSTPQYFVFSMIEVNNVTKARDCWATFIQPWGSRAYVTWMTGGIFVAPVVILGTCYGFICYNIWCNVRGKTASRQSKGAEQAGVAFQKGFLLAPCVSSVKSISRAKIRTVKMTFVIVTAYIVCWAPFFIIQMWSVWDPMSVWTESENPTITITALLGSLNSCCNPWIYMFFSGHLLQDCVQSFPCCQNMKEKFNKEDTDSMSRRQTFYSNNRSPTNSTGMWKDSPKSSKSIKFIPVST
# How it was run: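 IC50 from inhibition of [Arg]-vasopressin (EC50 concentration)-evoked aequorin luminescence in CHO K1 cells, with 10-min compound pretreatment.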
# human V2 receptor = biological target: T2, human V2 receptor (Homo sapiens, UniProt P30518); experiment: Cellular in vitro assay for determining vasopressin receptor activity, V2 receptor cell line (CHO, CRE-luciferase); assay type: cell-based; conditions: CHO cell line transfected with human V2 receptor; [Arg8]-vasopressin at EC50 concentration, 3 hours; read-out: IC50 hV2
# T2 construct: expressed in transfected cells; host or cells: CHO K1 (ATCC) expressing firefly luciferase under a CRE-responsive promoter
# T2 sequence (P30518 whole entry): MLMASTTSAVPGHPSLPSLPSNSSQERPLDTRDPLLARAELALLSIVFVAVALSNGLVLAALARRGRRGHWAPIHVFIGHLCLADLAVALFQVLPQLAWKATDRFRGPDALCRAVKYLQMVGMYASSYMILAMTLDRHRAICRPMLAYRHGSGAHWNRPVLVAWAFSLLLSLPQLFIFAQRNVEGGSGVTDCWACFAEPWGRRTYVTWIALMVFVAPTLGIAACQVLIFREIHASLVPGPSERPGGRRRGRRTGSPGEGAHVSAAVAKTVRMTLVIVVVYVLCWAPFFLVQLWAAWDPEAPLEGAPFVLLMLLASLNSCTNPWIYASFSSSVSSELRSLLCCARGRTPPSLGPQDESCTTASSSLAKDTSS
smiles,measurement,setting,value
"O=C(CC1CC1)Nc1ccncc1-n1cnc(Cn2nc(-c3ccc(Cl)cc3)n(C[C@H](O)C(F)(F)F)c2=O)n1 [Example 30, N-{3-[3-({3-(4-Chlorophenyl)-5-oxo-4-[(2S)-3,3,3-trifluoro-2-hydroxypropyl]-4,5-dihydro-1H-1,2,4-triazol-1-yl}methyl)-1H-1,2,4-triazol-1-yl]pyridin-4-yl}-2-cyclopropylacetamide]",IC50,human V1a receptor,12.8 nM
same,ratio IC50 hV2/hV1a,human V1a receptor,61.0
same,IC50,human V2 receptor,783 nM
"O=C(Nc1ccncc1-n1cnc(Cn2nc(-c3ccc(Cl)cc3)n(C[C@H](O)C(F)(F)F)c2=O)n1)C1CC(F)(F)C1 [Example 31, N-{3-[3-({3-(4-Chlorophenyl)-5-oxo-4-[(2S)-3,3,3-trifluoro-2-hydroxypropyl]-4,5-dihydro-1H-1,2,4-triazol-1-yl}methyl)-1H-1,2,4-triazol-1-yl]pyridin-4-yl}-3,3-difluorocyclobutanecarboxamide]",IC50,human V1a receptor,18.3 nM
same,ratio IC50 hV2/hV1a,human V1a receptor,90.8
same,IC50,human V2 receptor,1670 nM
"O=C(Nc1ccncc1-n1cnc(Cn2nc(-c3ccc(Cl)cc3)n(C[C@H](O)C(F)(F)F)c2=O)n1)C1(C(F)(F)F)CC1 [Example 32, N-{3-[3-({3-(4-Chlorophenyl)-5-oxo-4-[(2S)-3,3,3-trifluoro-2-hydroxypropyl]-4,5-dihydro-1H-1,2,4-triazol-1-yl}methyl)-1H-1,2,4-triazol-1-yl]pyridin-4-yl}-1-(trifluoromethyl)cyclopropanecarboxamide]",IC50,human V1a receptor,5 nM
same,ratio IC50 hV2/hV1a,human V1a receptor,150.7
same,IC50,human V2 receptor,753 nM
"O=C(Nc1ccncc1-n1cnc(Cn2nc(-c3ccc(Cl)cc3)n(C[C@H](O)C(F)(F)F)c2=O)n1)[C@@H]1C[C@@H]1F [Example 34, (1S,2S)—N-{t3-[3-({3-(4-Chlorophenyl)-5-oxo-4-[(2S)-3,3,3-trifluoro-2-hydroxypropyl]-4,5-dihydro-1H-1,2,4-triazol-1-yl}methyl)-1H-1,2,4-triazol-1-yl]pyridin-4-yl}-2-fluorocyclopropanecarboxamide]",IC50,human V1a receptor,13.5 nM
same,ratio IC50 hV2/hV1a,human V1a receptor,92.1
same,IC50,human V2 receptor,1240 nM
"O=C(Nc1cccnc1-n1cnc(Cn2nc(-c3ccc(Cl)cc3)n(C[C@H](O)C(F)(F)F)c2=O)n1)C(F)(F)F [Example 36, N-{2-[3-({3-(4-Chlorophenyl)-5-oxo-4-[(2S)-3,3,3-trifluoro-2-hydroxypropyl]-4,5-dihydro-1H-1,2,4-triazol-1-yl}methyl)-1H-1,2,4-triazol-1-yl]pyridin-3-yl}-2,2,2-trifluoroacetamide]",IC50,human V1a receptor,67.5 nM
same,ratio IC50 hV2/hV1a,human V1a receptor,3.4
same,IC50,human V2 receptor,232 nM
"O=C(CC(F)(F)F)Nc1cccnc1-n1cnc(Cn2nc(-c3ccc(Cl)cc3)n(C[C@H](O)C(F)(F)F)c2=O)n1 [Example 37, N-{2-[3-({3-(4-Chlorophenyl)-5-oxo-4-[(2S)-3,3,3-trifluoro-2-hydroxypropyl]-4,5-dihydro-1H-1,2,4-triazol-1-yl}methyl)-1H-1,2,4-triazol-1-yl]pyridin-3-yl}-3,3,3-trifluoropropanamide]",IC50,human V1a receptor,7.5 nM
same,ratio IC50 hV2/hV1a,human V1a receptor,77.0
same,IC50,human V2 receptor,578 nM
"CC(=O)Nc1cccnc1-n1cnc(Cn2nc(-c3ccc(Cl)cc3)n(C[C@H](O)C(F)(F)F)c2=O)n1 [Example 38, N-{2-[3-({3-(4-Chlorophenyl)-5-oxo-4-[(2S)-3,3,3-trifluoro-2-hydroxypropyl]-4,5-dihydro-1H-1,2,4-triazol-1-yl}methyl)-1H-1,2,4-triazol-1-yl]pyridin-3-yl}acetamide]",IC50,human V1a receptor,4.2 nM
same,ratio IC50 hV2/hV1a,human V1a receptor,52.4
same,IC50,human V2 receptor,220 nM
"O=C(CF)Nc1cccnc1-n1cnc(Cn2nc(-c3ccc(Cl)cc3)n(C[C@H](O)C(F)(F)F)c2=O)n1 [Example 39, N-{2-[3-({3-(4-Chlorophenyl)-5-oxo-4-[(2S)-3,3,3-trifluoro-2-hydroxypropyl]-4,5-dihydro-1H-1,2,4-triazol-1-yl}methyl)-1H-1,2,4-triazol-1-yl]pyridin-3-yl}-2-fluoroacetamide]",IC50,human V1a receptor,23 nM
same,ratio IC50 hV2/hV1a,human V1a receptor,15.7
same,IC50,human V2 receptor,360 nM
